Patent US20260242352A1, “INHIBITION OF SHIP1 AS A THERAPEUTIC STRATEGY FOR THE TREATMENT OF ALZHEIMER'S DISEASE” (The Trustees of Indiana University, priority 2022, published 2026)

How the values were obtained:
BV2 cells = experiment: pHrodo-myelin phagocytosis/cell health assay, BV2 cells; assay type: cell-based; settings: Mus musculus, BV-2, compound 48 hrs, 60 μM to 3 nM, (n) in cell
Experimental: pHrodo-myelin phagocytosis/cell health assay with microglial cells. This 384-well plate high content imaging assay was developed to quantify phagocytosis and cell health simultaneously using either BV2 or HMC3 immortalized microglial cell lines or primary microglia isolated from mouse brain. Cells were cultured in DMEM GlutaMax media (ThermoFisher) containing 10% FBS and Pen-Strep in 37° C. 5% CO2 incubator.
Day 1: Cells were plated (Corning Falcon 384 well Optilux Black and clear bottom plates for imaging) with BV2 at 400 cells/45 μl/well, HMC3 at 600 cells/45 μl/well, or primary at 2000 cell/45 μl/well.
Day 2: Cells were treated with 10× serially diluted compounds in a dose range of 60 μM to 3 nM for 48 hrs at 37° C.
Day 3: Cells were seeded with pHrodo-myelin (for total 20 hrs) 24 hrs after starting compound treatment. The pHrodo-myelin stocks were at 1 mg/ml (protein equivalent) stored in −20° C. or −80° C. freezer. Stocks were thawed and diluted with culture media into 10× seeding solution (50 μg/ml) and added 5 μl/well to 384 well cell plate.
Day 4: Cell staining and imaging. Nuclear staining solution was prepared by adding 1 μl of 10 mg/mL Hoechst-33342 to every 1 ml culture media that will be added to cell plate at 20 μl/well. The final concentration of Hoechst-33342 to cells was about 2.5 μg/ml. Cell plates were incubated for >30 min at 37° C. before imaging. Cell plates were scanned with an ArrayScan automatic high content imaging system using a 10× objective lens, 4 fields/well collected. Three measurements were obtained 1) mean total phagocytosis spot intensity per cell, 2) total cell counts per well, and 3) mean average nuclear intensity per cell for cell health.
This 384-well plate high content imaging assay was developed to quantify phagocytosis and cell health simultaneously using either BV2 or HMC3 immortalized microglial cell lines or primary microglia isolated from mouse brain. Cells were cultured in DMEM GlutaMax media (ThermoFisher) containing 10% FBS and Pen-Strep in 37° C. 5% CO2 incubator. Day 1: Cells were plated (Corning Falcon 384 well Optilux Black and clear bottom plates for imaging) with BV2 at 400 cells/45 μl/well, HMC3 at 600 cells/45 μl/well, or primary at 2000 cell/45 μl/well. Day 2: Cells were treated with 10× serially diluted compounds in a dose range of 60 μM to 3 nM for 48 hrs at 37° C. Day 3: Cells were seeded with pHrodo-myelin (for total 20 hrs) 24 hrs after starting compound treatment. The pHrodo-myelin stocks were at 1 mg/ml (protein equivalent) stored in −20° C. or −80° C. freezer. Stocks were thawed and diluted with culture media into 10× seeding solution (50 μg/ml) and added 5 μl/well to 384 well cell plate. Day 4: Cell staining and imaging. Nuclear staining solution was prepared by adding 1 μl of 10 mg/mL Hoechst-33342 to every 1 ml culture media that will be added to cell plate at 20 μl/well. The final concentration of Hoechst-33342 to cells was about 2.5 μg/ml. Cell plates were incubated for >30 min at 37° C. before imaging. Cell plates were scanned with an ArrayScan automatic high content imaging system using a 10× objective lens, 4 fields/well collected. Three measurements were obtained 1) mean total phagocytosis spot intensity per cell, 2) total cell counts per well, and 3) mean average nuclear intensity per cell for cell health.

[1] = Pharmacokinetics in C57BL/6J mice; assay type: in vivo, mouse; settings: dosed orally at 100 mg/kg
Experimental: Pharmacokinetics of Compound 9. Compound 9 was formulated at 5 mg/ml in HPMC (1%)/Tween 80 (0.25%)/purified water. Male C57BL/6J mice aged 8-12 weeks from The Jackson Laboratory were dosed (100 mg/kg, 20 ml/kg) via oral gavage. Plasma exposures at 0.5, 1, 2, 4, 6, 8, 12 hr and terminal at 24 hr were obtained. Brain exposures were obtained at terminal 4 and 24 hrs. The pharmacokinetics of Compound 10 was obtained in a similar manner to Compound 9. Compound was formulated in hydroxyethylcellulose (1%)/Tween 80 (0.25%)/antifoam (0.050%)/water (purified) at a concentration of 5 mg/ml. 100 mg/kg, 20 ml/kg was dosed via oral gavage. Plasma exposures at 0.25, 0.5, 1, 2, 8 hr and terminal at 24 hrs were obtained. Brain exposures were obtained at terminal 4 and 24 hrs. The results are depicted in FIG. 4. Pharmacokinetics of compound 10 in C57BL/6J Mice were obtained in a similar manner as compound 9. The results are depicted in FIG. 4.

primary mouse microglia = experiment: Phagocytosis in primary mouse microglia; assay type: cell-based; settings: pHrodo-myelin
Experimental: Activity of Compound 9 in primary mouse microglia. Cortical tissue from C57BL/6J neonatal mice (P0-P3) was homogenized in Dulbecco's Modified Eagle Medium (DMEM), filtered through 250 and 100 μm mesh, and cultured in Advanced DMEM/F12 supplemented with 10% fetal bovine serum, 1× GlutaMAX and 1× Penicillin/Streptomycin. At 21 days in vitro (DIV), the cultures were subjected to mild trypsinization using 0.083% Trypsin-EDTA in DMEM for 30 mins to detach an intact layer of astrocytes. The microglia attached to the bottom were used as described in pHrodo-myelin phagocytosis assay to measure phagocytosis and cell health. The activity of Compound 10 in primary mouse microglia was obtained in a similar manner to Compound 9. Cortical tissue from C57BL/6J neonatal mice (P0-P3) was homogenized in Dulbecco's Modified Eagle Medium (DMEM), filtered through 250 and 100 μm mesh, and cultured in Advanced DMEM/F12 supplemented with 10% fetal bovine serum, 1× GlutaMAX and 1× Penicillin/Streptomycin. At 21 days in vitro (DIV), the cultures were subjected to mild trypsinization using 0.083% Trypsin-EDTA in DMEM for 30 mins to detach an intact layer of astrocytes. The microglia attached to the bottom were used as described in Example 13 to measure myelin phagocytosis and cell health. The results are depicted in FIG. 3. Primary Mouse Microglia of compound 10 was obtained in a similar manner to compound 9. The results are depicted in FIG. 3.

EC50 (BV2 cells) [nM] | Structure (SMILES) | also measured
2330 | CC(C)(C)OC(=O)N1CCC(n2cc(-c3cncc(OCc4ccccc4Cl)c3)cn2)CC1 [Compound 1, tert-butyl 4-(4-{5-[(2-chlorophenyl)methoxy]pyridin-3-yl}-1H-pyrazol-1-yl)piperidine-1-carboxylate] | 
741 | Cl.Clc1ccccc1COc1cncc(-c2cnn(C3CCNCC3)c2)c1 [Compound 9, 3-((2-chlorobenzyl)oxy)-5-(1-(piperidin-4-yl)-1H-pyrazol-4-yl)pyridine hydrochloride] | exposure in brain [1]: 0.5 µM; exposure in plasma [1]: 5 µM; EC50 (primary mouse microglia): 1300 nM; increased phagocytosis (primary mouse microglia): 1.8 fold
2260 | CC(C)(C)CCN1CCC(n2cc(-c3cncc(OCc4ccccc4Cl)c3)cn2)CC1 [Compound 15, 3-((2-chlorobenzyl)oxy)-5-(1-(1-(3,3-dimethylbutyl)piperidin-4-yl)-1H-pyrazol-4-yl)pyridine] | 
1170 | CC(C)(C)CC(=O)N1CCC(n2cc(-c3cncc(OCc4ccccc4Cl)c3)cn2)CC1 [Compound 16, 1-(4-(4-(5-((2-chlorobenzyl)oxy)pyridin-3-yl)-1H-pyrazol-1-yl)piperidin-1-yl)-3,3-dimethylbutan-1-one] | 

Continued, compound first:

Structure (SMILES) | EC50 (BV2 cells) [nM] | also measured
CC(C)(C)OC(=O)N1CCC(n2cc(-c3cncc(OCc4ccccc4F)c3)cn2)CC1 [Compound 2, tert-butyl 4-(4-(5-((2-fluorobenzyl)oxy)pyridin-3-yl)-1H-pyrazol-1-yl)piperidine-1-carboxylate] | 1560 | 
Cc1ccccc1COc1cncc(-c2cnn(C3CCN(C(=O)OC(C)(C)C)CC3)c2)c1 [Compound 3, tert-butyl 4-(4-(5-((2-methylbenzyl)oxy)pyridin-3-yl)-1H-pyrazol-1-yl)piperidine-1-carboxylate] | 1030 | 
CC(C)(C)OC(=O)N1CCC(n2cc(-c3cncc(OCc4ccccc4)c3)cn2)CC1 [Compound 4, tert-butyl 4-(4-(5-(benzyloxy)pyridin-3-yl)-1H-pyrazol-1-yl)piperidine-1-carboxylate] | 3230 | 
CC(C)(C)OC(=O)N1CCC(n2cc(-c3cncc(OCc4ccc(Br)cc4)c3)cn2)CC1 [Compound 7, tert-butyl 4-(4-(5-((4-bromobenzyl)oxy)pyridin-3-yl)-1H-pyrazol-1-yl)piperidine-1-carboxylate] | 756 | 
Cl.Clc1ccc(COc2cncc(-c3cnn(C4CCNCC4)c3)c2)c(Cl)c1 [Compound 10, 3-((2,4-dichlorobenzyl)oxy)-5-(1-(piperidin-4-yl)-1H-pyrazol-4-yl)pyridine hydrochloride] | 1750 | exposure in brain [1]: 6 µM; exposure in plasma [1]: 2 µM; EC50 (primary mouse microglia): 540 nM; increased phagocytosis (primary mouse microglia): 1.5 fold
C[C@H](Oc1cncc(-c2cnn(C3CCNCC3)c2)c1)c1ccccc1Cl [Compound 21, (S)-3-(1-(2-chlorophenyl)ethoxy)-5-(1-(piperidin-4-yl)-1H-pyrazol-4-yl)pyridine] | 395 | 
C[C@@H](Oc1cncc(-c2cnn(C3CCNCC3)c2)c1)c1ccc(Cl)cc1 [Compound 23, (R)-3-(1-(4-chlorophenyl)ethoxy)-5-(1-(piperidin-4-yl)-1H-pyrazol-4-yl)pyridine] | 2600 | 
